Reference: patent US20230089867A1, “CYCLIC PENTAMER COMPOUNDS AS PROPROTEIN CONVERTASE SUBTILISIN/KEXIN TYPE 9 (PCSK9) INHIBITORS FOR THE TREATMENT OF METABOLIC DISORDER” (Novartis AG, priority 2018, published 2023)
pIC50: −log10 of the molar value.

Target: human PCSK9 (Homo sapiens, UniProt Q8NBP7)
Test: PCSK9 ligand binding TR-FRET assay (interference with binding of human PCSK9 to human LDLR)
Settings: for Max % inhibition: PCSK9 FRET assay, efficacy (Amax), 100% = 1 uM unlabeled human PCSK9, 0% = DMSO; for pIC50: TR-FRET, human PCSK9 Alexa Fluor 647 / human LDLR extracellular domain-Europium Kryptate, read-out: PCSK9 FRET Assay IC50
Procedure, shortened: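 Threefold compound dilutions were pre-incubated 30 min with PCSK9, after which 4 nM Europium Kryptate-tagged human LDLR ectodomain was added for a further 2 h.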

human PCSK9, sequence (Q8NBP7 153-692): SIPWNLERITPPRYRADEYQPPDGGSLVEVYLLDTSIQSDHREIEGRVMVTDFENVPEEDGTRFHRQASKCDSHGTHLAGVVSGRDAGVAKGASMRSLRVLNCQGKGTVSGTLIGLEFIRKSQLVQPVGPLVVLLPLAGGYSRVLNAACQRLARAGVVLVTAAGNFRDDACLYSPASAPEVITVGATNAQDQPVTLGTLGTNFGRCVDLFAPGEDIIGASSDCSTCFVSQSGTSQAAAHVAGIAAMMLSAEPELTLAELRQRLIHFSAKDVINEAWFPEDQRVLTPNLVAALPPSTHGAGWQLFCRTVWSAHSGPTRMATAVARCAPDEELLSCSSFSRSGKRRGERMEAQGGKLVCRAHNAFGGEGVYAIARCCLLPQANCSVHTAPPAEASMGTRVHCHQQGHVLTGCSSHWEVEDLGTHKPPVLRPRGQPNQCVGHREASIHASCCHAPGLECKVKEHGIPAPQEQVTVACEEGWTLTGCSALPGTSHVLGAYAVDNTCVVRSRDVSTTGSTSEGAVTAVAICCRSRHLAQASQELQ
human PCSK9, sequence (Q8NBP7 31-152 partner limits assumed): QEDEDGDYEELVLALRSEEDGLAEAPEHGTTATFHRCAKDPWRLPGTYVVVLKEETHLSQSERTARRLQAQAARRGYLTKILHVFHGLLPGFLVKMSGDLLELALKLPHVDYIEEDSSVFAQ

SMILES | Max % inhibition | pIC50
COC[C@@H]1NC(=O)[C@H](C)N(Cc2ccc(Cl)cc2Oc2ccc(-c3cnc(C(C)O)n3C)cc2)C(=O)C[C@@H](Cc2ccccc2)C(=O)N(C)[C@@H](C)CNC(=O)C[C@H](Cc2ccc(Cl)cc2)N(C)C1=O (stereo partly drawn) [Compound 167, (2S,5S,8S,13S,16R)-16-benzyl-1-(4-chloro-2-(4-(2-(1-hydroxyethyl)-1-methyl-1H-imidazol-5-yl)phenoxy)benzyl)-8-(4-chlorobenzyl)-5-(methoxymethyl)-2,7,13,14-tetramethyl-1,4,7,11,14-pentaazacyclooctadecane-3,6,10,15,18-pentaone] | 81.26% | 8.74
COC[C@@H]1NC(=O)[C@H](CCCN2CCCC2)N(Cc2ccc(Cl)cc2Oc2ccc(-c3cnc(CN(C)C)n3C)cc2)C(=O)C[C@@H](Cc2ccccc2)C(=O)N(C)[C@H]2CCCC[C@@H]2NC(=O)C[C@H](Cc2ccc(Cl)cc2)N(C)C1=O [Compound 251, (4S,7S,10S,14R,16aS,20aS)-14-benzyl-11-(4-chloro-2-(4-(2-((dimethylamino)methyl)-1-methyl-1H-imidazol-5-yl)phenoxy)benzyl)-4-(4-chlorobenzyl)-7-(methoxymethyl)-5,16-dimethyl-10-(3-(pyrrolidin-1-yl)propyl)hexadecahydrobenzo[l][1,4,7,11,14]pentaazacyclooctadecine-2,6,9,12,15(3H)-pentaone] | 99.24% | 9.10
CC[C@H]1C(=O)N[C@@H](COC)C(=O)N(C)[C@@H](Cc2ccc(Cl)cc2)CC(=O)NC[C@H](C)N(C)C(=O)[C@H](Cc2ccccc2)CC(=O)N1Cc1ccc(Cl)cc1Oc1ccc(-c2cnc(CN(C)C)n2C)cc1 [Compound 70, (2S,5S,8S,13S,16R)-16-benzyl-1-(4-chloro-2-(4-(2-((dimethylamino)methyl)-1-methyl-1H-imidazol-5-yl)phenoxy)benzyl)-8-(4-chlorobenzyl)-2-ethyl-5-(methoxymethyl)-7,13,14-trimethyl-1,4,7,11,14-pentaazacyclooctadecane-3,6,10,15,18-pentaone] | 101.10% | 9.05
COC[C@@H]1NC(=O)[C@H](C)N(Cc2ccc(Cl)cc2Oc2ccc(-c3cnc(CN4CCCC4)n3C)cc2)C(=O)C[C@@H](Cc2ccccc2)C(=O)N(C)[C@@H](CCN(C)C)CNC(=O)C[C@H](Cc2ccc(Cl)cc2)N(C)C1=O [Compound 190, (2S,5S,8S,13S,16R)-16-benzyl-1-(4-chloro-2-(4-(1-methyl-2-(pyrrolidin-1-ylmethyl)-1H-imidazol-5-yl)phenoxy)benzyl)-8-(4-chlorobenzyl)-13-(2-(dimethylamino)ethyl)-5-(methoxymethyl)-2,7,14-trimethyl-1,4,7,11,14-pentaazacyclooctadecane-3,6,10,15,18-pentaone] | 100.60% | 7.49

Continued by rising pIC50, values first:

Max % inhibition | pIC50 | SMILES
61.54% | 7.19 | COC[C@@H]1NC(=O)[C@H](C)N(Cc2ccc(Cl)cc2Oc2ccc(-c3cnc(OC(C)C)n3C)cc2)C(=O)C[C@@H](Cc2ccccc2)C(=O)N(C)[C@@H](C)CNC(=O)C[C@H](Cc2ccc(Cl)cc2)N(C)C1=O [Compound 92, (2S,5S,8S,13S,16R)-16-benzyl-1-(4-chloro-2-(4-(2-isopropoxy-1-methyl-1H-imidazol-5-yl)phenoxy)benzyl)-8-(4-chlorobenzyl)-5-(methoxymethyl)-2,7,13,14-tetramethyl-1,4,7,11,14-pentaazacyclooctadecane-3,6,10,15,18-pentaone]
91.76% | 8.51 | COC[C@@H]1NC(=O)[C@H](C)N(Cc2ccc(Cl)cc2Oc2ccc(-c3cnc4n3CCN(C(=O)[C@@H]3CCOC3)C4)cc2)C(=O)C[C@@H](Cc2ccccc2)C(=O)N(C)[C@@H](C)CNC(=O)C[C@H](Cc2ccc(Cl)cc2)N(C)C1=O [Compound 171, (2S,5S,8S,13S,16R)-16-benzyl-1-(4-chloro-2-(4-(7-((R)-tetrahydrofuran-3-carbonyl)-5,6,7,8-tetrahydroimidazo[1,2-a]pyrazin-3-yl)phenoxy)benzyl)-8-(4-chlorobenzyl)-5-(methoxymethyl)-2,7,13,14-tetramethyl-1,4,7,11,14-pentaazacyclooctadecane-3,6,10,15,18-pentaone]
102.27% | 8.51 | COC[C@@H]1NC(=O)[C@H](C)N(Cc2ccc(Cl)cc2Oc2ccc(-c3cnc(CN(C)C)n3C)cc2)C(=O)C[C@@H](Cc2ccc(F)c[n+]2[O-])C(=O)N(C)[C@@H](C)CNC(=O)C[C@H](Cc2ccc(Cl)cc2)N(C)C1=O [Compound 180, 2-(((2S,5S,8S,13S,16R)-1-(4-chloro-2-(4-(2-((dimethylamino)methyl)-1-methyl-1H-imidazol-5-yl)phenoxy)benzyl)-8-(4-chlorobenzyl)-5-(methoxymethyl)-2,7,13,14-tetramethyl-3,6,10,15,18-pentaoxo-1,4,7,11,14-pentaazacyclooctadecan-16-yl)methyl)-5-fluoropyridine 1-oxide]
90.79% | 8.70 | COC[C@@H]1NC(=O)[C@H](C)N(Cc2ccc(Cl)cc2Oc2ccc(-c3cnc(CN4CCCC4)n3C)cc2)C(=O)C[C@@H](Cc2ccccc2)C(=O)N(C)[C@H]2CCCC[C@@H]2NC(=O)C[C@H](Cc2ccc(Cl)cc2)N(C)C1=O [Compound 203, (4S,7S,10S,14R,16aS,20aS)-14-benzyl-11-(4-chloro-2-(4-(1-methyl-2-(pyrrolidin-1-ylmethyl)-1H-imidazol-5-yl)phenoxy)benzyl)-4-(4-chlorobenzyl)-7-(methoxymethyl)-5,10,16-trimethylhexadecahydrobenzo[l][1,4,7,11,14]pentaazacyclooctadecine-2,6,9,12,15(3H)-pentaone]
99.18% | 8.77 | COC[C@@H]1NC(=O)[C@H](C)N(Cc2ccc(Cl)cc2Oc2ccc(-c3cnc(CN4CCCC4)n3C)cc2)C(=O)C[C@@H](Cc2ccccc2)C(=O)N(C)[C@@H](CCF)CNC(=O)C[C@H](Cc2ccc(Cl)cc2)N(C)C1=O [Compound 83, (2S,5S,8S,13S,16R)-16-benzyl-1-(4-chloro-2-(4-(1-methyl-2-(pyrrolidin-1-ylmethyl)-1H-imidazol-5-yl)phenoxy)benzyl)-8-(4-chlorobenzyl)-13-(2-fluoroethyl)-5-(methoxymethyl)-2,7,14-trimethyl-1,4,7,11,14-pentaazacyclooctadecane-3,6,10,15,18-pentaone]
103.68% | 9.15 | COC[C@@H]1NC(=O)[C@H](C)N(Cc2ccc(Cl)cc2Oc2ccc(-c3cnc(CN(C)C)n3C)cc2)C(=O)C[C@@H](Cc2ccc(F)c(F)c2F)C(=O)N(C)[C@@H](C)[C@H](C)NC(=O)C[C@H](Cc2ccc(Cl)cc2)N(C)C1=O [Compound 293, (2S,5S,8S,12S,13S,16R)-1-(4-chloro-2-(4-(2-((dimethylamino)methyl)-1-methyl-1H-imidazol-5-yl)phenoxy)benzyl)-8-(4-chlorobenzyl)-5-(methoxymethyl)-2,7,12,13,14-pentamethyl-16-(2,3,4-trifluorobenzyl)-1,4,7,11,14-pentaazacyclooctadecane-3,6,10,15,18-pentaone]
